Where two headings read alike, the source gives them in different places.
Columns and labels:
[1] = tested on: spontaneously hypertensive rats; assay: Antihypertensive effect on the spontaneously hypertensive rats; type: in vivo, rat; conditions: 30 mg/kg, single oral administration, SHR, average blood pressure by aortic cannula
Description: Antihypertensive effect on the spontaneously hypertensive rats Five spontaneous rats (SHR), showing more than […] of systolic blood pressure were used. After a single oral administration, antihypertensive activity of the corresponding compound was evaluated in terms of a decrease in average blood pressure measured by means of a cannula embedded in the aorta.

[2] = target: T1, right artrium of guinea pig (Cavia porcellus, UniProt H0W3H1); assay: β-blocking effect: antagonism of increase of beat rate of right atrium of guinea pig caused by isoproterenol; type: cell-based
T1 construct: beat rate of a right artrium of guinea pig; from tissue; host or cells: guinea pig right atrium
Description: This was evaluated in terms of the effect antagonizing an increase of beat rate of a right artrium of guinea pig caused by isoproterenol. Efficiency of blocking by the corresponding compound is expressed in pA2 value (see Van Bossum, Arch. int. Pharmacodyn. Ther. 143, 299, 1963).

aorta of rat = target: T2, aorta of rat (Rattus norvegicus, UniProt P23944); assay: cell-based
T2 sequence (P23944 1-561): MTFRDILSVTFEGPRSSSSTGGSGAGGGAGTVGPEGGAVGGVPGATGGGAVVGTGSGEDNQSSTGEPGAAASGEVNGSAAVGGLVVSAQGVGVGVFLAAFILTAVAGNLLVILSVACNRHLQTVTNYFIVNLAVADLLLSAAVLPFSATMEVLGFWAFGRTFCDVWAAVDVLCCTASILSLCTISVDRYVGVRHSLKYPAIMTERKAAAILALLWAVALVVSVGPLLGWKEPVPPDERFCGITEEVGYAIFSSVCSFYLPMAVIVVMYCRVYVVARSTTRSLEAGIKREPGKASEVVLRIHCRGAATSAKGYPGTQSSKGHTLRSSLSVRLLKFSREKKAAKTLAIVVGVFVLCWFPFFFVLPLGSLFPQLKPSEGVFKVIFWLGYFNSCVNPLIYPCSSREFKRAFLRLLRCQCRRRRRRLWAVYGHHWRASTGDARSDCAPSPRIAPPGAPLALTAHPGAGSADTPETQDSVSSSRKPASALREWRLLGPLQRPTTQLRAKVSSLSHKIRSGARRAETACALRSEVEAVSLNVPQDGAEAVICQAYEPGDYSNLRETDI

[3] = Acute toxicity of active compounds (LD50); conditions: in vivo
From the text: Beta-blocking agents hitherto known have to be given to hypertensive patients for some period before desirable effects are obtained.

[4] = clinical use; cited from earlier work
heart rate = assay: Influence on the heart rate in unanaesthetized dogs; type: in vivo, dog; conditions: 10 mg/kg oral
Description: 4. Influence on the heart rate This was measured in dogs under unanaesthesized condition after oral administration of the corresponding compound.

[5] = pA2 vs isoproterenol, guinea pig right atrium, read-out: β-Blocking effect (pA2) (converted)
[6] = pA2 vs phenylephrine, rat aorta, read-out: α-Blocking effect (pA2) (converted)

T1 sequence (H0W3H1 1-470): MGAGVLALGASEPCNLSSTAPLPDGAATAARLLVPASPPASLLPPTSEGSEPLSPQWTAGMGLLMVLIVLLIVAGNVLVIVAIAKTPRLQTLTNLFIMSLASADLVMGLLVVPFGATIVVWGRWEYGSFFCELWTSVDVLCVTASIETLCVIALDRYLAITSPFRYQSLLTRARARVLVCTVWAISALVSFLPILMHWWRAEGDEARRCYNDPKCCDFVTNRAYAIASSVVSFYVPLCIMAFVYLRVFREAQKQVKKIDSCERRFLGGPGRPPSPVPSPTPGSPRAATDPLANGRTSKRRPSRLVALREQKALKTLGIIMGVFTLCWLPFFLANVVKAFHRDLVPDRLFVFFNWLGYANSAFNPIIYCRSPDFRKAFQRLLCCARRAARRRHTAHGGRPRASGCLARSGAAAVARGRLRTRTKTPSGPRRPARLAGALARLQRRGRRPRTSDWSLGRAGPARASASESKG

Compound | Antihypertensive effect: decrease in blood pressure [1] | Kb [2, 5] | Kb (aorta of rat; [6]) | LD50 ([3]; iv, I.V., read-out: LD50 I.V.) | LD50 ([3]; po, P.O., read-out: LD50 P.O.) | Kb [2] | orthostatic hypotension (in words) [4] | Influence on heart rate: change (heart rate) | Kb (aorta of rat)
COc1ccccc1OCC(C)NCC(O)COc1c[nH]c(=O)c2ccccc12.Cl (centres unmarked) [4-[3-{2-(2-methoxyphenoxy)-1-methylethylamino}-2-hydroxypropoxy]isocarbostyril hydrochloride] | 35 mm Hg | 10.7 nM | 19.5 nM |  |  |  |  |  | 
CC(COc1ccccc1C(N)=O)NCC(O)COc1c[nH]c(=O)c2ccccc12 (centres unmarked) [4-[3-{2-(2-carbamoylphenoxy)-1-methylethylamino}-2-hydroxypropy]isocarbostyril] | 10 mm Hg | 14.8 nM |  |  |  |  |  |  | 
COc1ccc(OCC(C)NCC(O)COc2c[nH]c(=O)c3ccccc23)cc1.Cl (centres unmarked) [4-[3-{2-(4-methoxyphenoxy)-1-methylethylamino}-2-hydroxypropoxy]isocarbostyril hydrochloride] | 21 mm Hg | 9.55 nM |  | 137 mg/kg | > 2000 mg/kg |  |  |  | 
CC(COc1ccc(N)cc1)NCC(O)COc1c[nH]c(=O)c2ccccc12.Cl (centres unmarked) [4-[3-{2-(4-aminophenoxy)-1-methylethylamino}-2-hydroxypropoxy]isocarbostyril hydrochloride] | 31 mm Hg | 7.24 nM |  |  |  |  |  |  | 
CC(CCc1ccccc1)NCC(O)c1ccc(O)c(C(N)=O)c1 (centres unmarked) [Labetalol, reference compound] | 31 mm Hg |  |  |  |  | 38 nM | serious adverse reaction | Increase | 41.7 nM
CC(COc1ccc(N)cc1)NCC(O)COc1c[nH]c(=O)c2ccccc12 (centres unmarked) [4-[3-{2-(4-aminophenoxy)-1-methylethylamino}-2-hydroxypropoxy]isocarbostyril] |  |  |  | 77.4 mg/kg | > 2000 mg/kg |  |  |  | 
CC(COc1ccc([N+](=O)[O-])cc1)NCC(O)COc1c[nH]c(=O)c2ccccc12.Cl (centres unmarked) [4-[3-{1-methyl-2-(4-nitrophenoxy)ethylamino}-2-hydroxypropoxy]isocarbostyril hydrochloride] | 17 mm Hg | 37.2 nM |  |  |  |  |  |  | 
CC(COc1ccccc1)NCC(O)COc1c[nH]c(=O)c2ccccc12.Cl (centres unmarked) [4-[3-(1-methyl-2-phenoxyethyl-amino)-2-hydroxypropoxy]isocarbostyril hydrochloride] | 15 mm Hg | 13.2 nM | 26.9 nM |  |  |  |  |  | 
COc1ccc(OCC(C)NCC(O)COc2c[nH]c(=O)c3ccccc23)c(OC)c1.Cl (centres unmarked) [4-[3-{2-(2,4-dimethoxyphenoxy)-1-methylethylamino}-2-hydroxypropoxy]isocarbostyril hydrochloride] | 32 mm Hg | 5.5 nM | 63.1 nM | 118 mg/kg | > 2000 mg/kg |  |  |  | 
CC(C)NCC(O)COc1cccc2ccccc12 (centres unmarked) [Propranolol, reference compound] | 3 mm Hg |  |  |  |  |  |  | Decrease | 
CC(COc1ccc(O)cc1)NCC(O)COc1c[nH]c(=O)c2ccccc12 (centres unmarked) [4-[3-{2-(4-hydroxyphenoxy)-1-methylethylamino{-2-hydroxy-propoxy]isocarbostyril] | 26 mm Hg | 2.95 nM | 102 nM | 163 mg/kg | > 2000 mg/kg |  |  |  | 
